From paper PMC6508677, “Identification of druggable small molecule antagonists of the Plasmodium falciparum hexose transporter PfHT and assessment of ligand access to the glucose permeation pathway via FLAG-mediated protein engineering” (PLoS ONE, 2019)
“And” between values parts separate entries of the source, which are not always exact repeats. Identical values can stand only once.

Target: T1, PfHT (Plasmodium falciparum, UniProt Q7KWJ5)
T1 sequence (Q7KWJ5 1-504): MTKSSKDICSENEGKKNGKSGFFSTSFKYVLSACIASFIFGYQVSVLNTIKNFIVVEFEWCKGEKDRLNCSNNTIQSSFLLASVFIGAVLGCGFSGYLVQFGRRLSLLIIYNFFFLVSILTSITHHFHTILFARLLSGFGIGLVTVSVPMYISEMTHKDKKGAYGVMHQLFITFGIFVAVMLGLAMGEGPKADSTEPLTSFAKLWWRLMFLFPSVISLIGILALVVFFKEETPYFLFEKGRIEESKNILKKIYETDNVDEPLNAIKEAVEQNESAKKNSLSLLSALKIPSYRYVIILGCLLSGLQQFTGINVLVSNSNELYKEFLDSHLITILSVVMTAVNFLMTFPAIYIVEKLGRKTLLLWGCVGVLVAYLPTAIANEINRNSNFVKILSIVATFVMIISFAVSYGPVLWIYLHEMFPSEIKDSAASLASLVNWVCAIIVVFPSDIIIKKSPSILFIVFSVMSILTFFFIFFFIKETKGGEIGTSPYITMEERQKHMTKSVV
Test: [3H]-D-glucose specific uptake into liposomes containing purified PfHT
Assay type: biochemical
Design: expressed in transfected cells; host or cells: HEK293 (HEK293-FLIP, native hGLUT1 knocked down by shRNA)
Conditions: for D-Glc - L-Glc Uptake, Ave / D-Glc - L-Glc Uptake, individual experiments: PfHT liposomes

In the case of `Cc1ccc(S(=O)(=O)CCNC(=O)c2c(-c3c(Cl)cccc3Cl)noc2C)cc1` [WU-1, 3-(2,6-dichlorophenyl)-5-methyl-N-[2-(4-methylbenzenesulfonyl)ethyl]-1,2-oxazole-4-carboxamide], the IC50 (IC50 for specific D-glucose uptake (D-glucose minus L-glucose) into PfHT liposomes, purified PfHT, zero-trans, mean) is reported as 5.9 ± 0.8 µM, the IC50 (IC50 for specific D-glucose uptake into PfHT liposomes, individual experiments, Expt 1-3) is reported as 7.34 µM and 4.58 µM and 5.92 µM and the “D-Glc - L-Glc Uptake, Ave” value (0.001 µM WU-1) is reported as 21.51 pmol/µg PfHT. For the same compound, the “D-Glc - L-Glc Uptake, individual experiments” value (“D-Glc … individual experiments” for short) (0.001 µM WU-1) was 20.93 pmol/µg PfHT and 22.42 pmol/µg PfHT and 21.19 pmol/µg PfHT, the “D-Glc - L-Glc Uptake, Ave” value (0.625 µM WU-1) was 22.79 pmol/µg PfHT and the “D-Glc … individual experiments” value (0.625 µM WU-1) was 21.85 pmol/µg PfHT and 22.43 pmol/µg PfHT and 24.08 pmol/µg PfHT. The “D-Glc - L-Glc Uptake, Ave” value (1.25 µM WU-1) was 19.33 pmol/µg PfHT, the “D-Glc … individual experiments” value (1.25 µM WU-1) was 16.67 pmol/µg PfHT and 24.18 pmol/µg PfHT and 17.15 pmol/µg PfHT and the “D-Glc - L-Glc Uptake, Ave” value (2.5 µM WU-1) was 18.48 pmol/µg PfHT. For the same compound, the “D-Glc … individual experiments” value (2.5 µM WU-1) was 16.28 pmol/µg PfHT and 15.54 pmol/µg PfHT and 23.61 pmol/µg PfHT, the “D-Glc - L-Glc Uptake, Ave” value (5 µM WU-1) was 10 pmol/µg PfHT and the “D-Glc … individual experiments” value (5 µM WU-1) was 13.49 pmol/µg PfHT and 7.15 pmol/µg PfHT and 9.35 pmol/µg PfHT. The “D-Glc - L-Glc Uptake, Ave” value (10 µM WU-1) was 7.99 pmol/µg PfHT, the “D-Glc … individual experiments” value (10 µM WU-1) was 7.38 pmol/µg PfHT and 9.19 pmol/µg PfHT and 7.39 pmol/µg PfHT and the “D-Glc - L-Glc Uptake, Ave” value (20 µM WU-1) was 5.15 pmol/µg PfHT. The “D-Glc … individual experiments” value (20 µM WU-1) was 6.58 pmol/µg PfHT and 4.82 pmol/µg PfHT and 4.04 pmol/µg PfHT, the “D-Glc - L-Glc Uptake, Ave” value (40 µM WU-1) was 2.74 pmol/µg PfHT and the “D-Glc … individual experiments” value (40 µM WU-1) was 3.05 pmol/µg PfHT and 1.92 pmol/µg PfHT and 3.24 pmol/µg PfHT. The “D-Glc - L-Glc Uptake, Ave” value (80 µM WU-1) was -0.29 pmol/µg PfHT, the “D-Glc … individual experiments” value (80 µM WU-1) was 0.605 pmol/µg PfHT and -1.53 pmol/µg PfHT and 0.06 pmol/µg PfHT and the “D-Glc - L-Glc Uptake, Ave” value (160 µM WU-1) was -0.167 pmol/µg PfHT. The “D-Glc … individual experiments” value (160 µM WU-1) was 0.75 pmol/µg PfHT and -0.06 pmol/µg PfHT and -1.19 pmol/µg PfHT.
